Laboratory results reported in patent US20120029187A1, “HALOALKYLSULFONANILIDE DERIVATIVE” (Nissan Chemical Industries, Ltd., priority 2009, published 2012).

What was measured:
Assay type in all cases: in vivo
[1] = system: common chickweed; test: Test Example 4: herbicidal effect in foliage treatment; conditions: dose 3.2 g/a, three weeks after application
In short: (§1)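 Visual herbicidal scores on a graded scale were recorded three weeks after foliar application. Compounds went on as diluted emulsifiable concentrates at predetermined g/a to plants grown 14 days in a 25 to 30° C greenhouse.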

[2] = system: barnyardgrass; test: as above; conditions: dose 3.2 g/a, three weeks after application
In short: as §1

[3] = system: large crabgrass; test: as above; conditions: dose 3.2 g/a, three weeks after application
In short: as §1

[4] = system: velvetleaf; test: as above; conditions: dose 3.2 g/a, three weeks after application
In short: as §1

[5] = system: water foxtail; test: as above; conditions: dose 3.2 g/a, three weeks after application
In short: as §1

[6] = system: wild oat; test: as above; conditions: dose 3.2 g/a, three weeks after application
In short: as §1

[7] = system: beadstraw; test: as above; conditions: dose 3.2 g/a, three weeks after application
In short: as §1

[8] = system: Italian ryegrass; test: as above; conditions: dose 3.2 g/a, three weeks after application
In short: as §1

[9] = system: posumbu knotweed; test: as above; conditions: dose 3.2 g/a, three weeks after application
In short: as §1

[10] = system: giant foxtail; test: as above; conditions: dose 3.2 g/a, three weeks after application
In short: as §1

[11] = system: common lambsquater; test: as above; conditions: dose 3.2 g/a, three weeks after application
In short: as §1

[12] = system: redroot pigweed; test: as above; conditions: dose 3.2 g/a, three weeks after application
In short: as §1

[13] = system: common ragweed; test: as above; conditions: dose 3.2 g/a, three weeks after application
In short: as §1

[14] = system: common chickweed; test: Test Example 3: herbicidal effects in soil treatment; conditions: dose 3.2 g/a
In short: (§2)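 Seeds were sown in sterilized diluvial soil and covered with about 1.5 cm of soil. Compounds, formulated as emulsifiable concentrates and diluted with water, were sprayed evenly over the soil surface at set doses in g/a. Herbicidal effect was scored on a rating scale three weeks later.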

[15] = system: barnyardgrass; test: as above; conditions: dose 3.2 g/a
In short: as §2

[16] = system: large crabgrass; test: as above; conditions: dose 3.2 g/a
In short: as §2

[17] = system: velvetleaf; test: as above; conditions: dose 3.2 g/a
In short: as §2

[18] = system: water foxtail; test: as above; conditions: dose 3.2 g/a
In short: as §2

[19] = system: wild oat; test: as above; conditions: dose 3.2 g/a
In short: as §2

[20] = system: beadstraw; test: as above; conditions: dose 3.2 g/a
In short: as §2

[21] = system: Italian ryegrass; test: as above; conditions: dose 3.2 g/a
In short: as §2

[22] = system: posumbu knotweed; test: as above; conditions: dose 3.2 g/a
In short: as §2

[23] = system: giant foxtail; test: as above; conditions: dose 3.2 g/a
In short: as §2

[24] = system: common lambsquater; test: as above; conditions: dose 3.2 g/a
In short: as §2

[25] = system: redroot pigweed; test: as above; conditions: dose 3.2 g/a
In short: as §2

[26] = system: common ragweed; test: as above; conditions: dose 3.2 g/a
In short: as §2

[27] = system: barnyardgrass; test: Test Example 1: herbicidal effects in preemergence treatment under submerged conditions; conditions: dose 2.52 g/a
In short: (§3)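 Submerged conditions, 4 cm water over alluvial soil. Weeds sown and 2.5-leaf rice transplanted; compound applied preemergence to water surface, doses in g per are. Greenhouse, 25 to 30° C., three weeks, then 0–5 mortality rating.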

[28] = system: ducksalad; test: as above; conditions: dose 2.52 g/a
In short: as §3

[29] = system: bulrush; test: as above; conditions: dose 2.52 g/a
In short: as §3

[30] = system: barnyardgrass; test: Test Example 2: herbicidal effects during the vegetation period under submerged conditions; conditions: treatment during the vegetation period under submerged conditions; dose 2.52 g/a
In short: (§4)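 Barnyardgrass, bulrush and ducksalad were co-sown in alluvial soil flooded to 4 cm and grown in a greenhouse at 25 to 30° C. At the 1- or 2-leaf stage, water-diluted emulsifiable concentrates went onto the water surface at set doses (g/a). Herbicidal effect was scored three weeks later on a graded scale.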

[31] = system: ducksalad; test: as above; conditions: treatment during the vegetation period under submerged conditions; dose 2.52 g/a
In short: as §4

[32] = system: bulrush; test: as above; conditions: treatment during the vegetation period under submerged conditions; dose 2.52 g/a
In short: as §4

[33] = system: transplanted rice; test: Test Example 1: preemergence treatment under submerged conditions, effect on crop; conditions: dose 2.52 g/a
In short: as §3

CCOC(=O)N(c1ccccc1CN1COC(C)(C)C(F)C1=O)S(=O)(=O)C(F)(F)F (stereo not drawn) [II-34]
N: common chickweed, herbicidal effect [1]: 4 (mortality of at least 70% and less than 90%)
A: barnyardgrass, herbicidal effect [2]: 5 (mortality of 90% or above (nearly complete death))
D: large crabgrass, herbicidal effect [3]: 4 (mortality of at least 70% and less than 90%)
I: velvetleaf, herbicidal effect [4]: 3 (mortality of at least 40% and less than 70%)
G: water foxtail, herbicidal effect [5]: 5 (mortality of 90% or above (nearly complete death))
F: wild oat, herbicidal effect [6]: 0 (mortality of less than 5% (almost ineffective))
O: beadstraw, herbicidal effect [7]: 4 (mortality of at least 70% and less than 90%)
H: Italian ryegrass, herbicidal effect [8]: 4 (mortality of at least 70% and less than 90%)
M: posumbu knotweed, herbicidal effect [9]: 4 (mortality of at least 70% and less than 90%)
E: giant foxtail, herbicidal effect [10]: 3 (mortality of at least 40% and less than 70%)
L: common lambsquater, herbicidal effect [11]: 3 (mortality of at least 40% and less than 70%)
K: redroot pigweed, herbicidal effect [12]: 2 (mortality of at least 20% and less than 40%)
J: common ragweed, herbicidal effect [13]: 4 (mortality of at least 70% and less than 90%)
N: common chickweed, herbicidal effect (evaluation scale 0-5) [14]: 3 (mortality of at least 40% and less than 70%)
A: barnyardgrass, herbicidal effect (evaluation scale 0-5) [15]: 5 (mortality of 90% or above (nearly complete death))
D: large crabgrass, herbicidal effect (evaluation scale 0-5) [16]: 5 (mortality of 90% or above (nearly complete death))
I: velvetleaf, herbicidal effect (evaluation scale 0-5) [17]: 3 (mortality of at least 40% and less than 70%)
G: water foxtail, herbicidal effect (evaluation scale 0-5) [18]: 5 (mortality of 90% or above (nearly complete death))
F: wild oat, herbicidal effect (evaluation scale 0-5) [19]: 0 (mortality of less than 5% (almost ineffective))
O: beadstraw, herbicidal effect (evaluation scale 0-5) [20]: 4 (mortality of at least 70% and less than 90%)
H: Italian ryegrass, herbicidal effect (evaluation scale 0-5) [21]: 2 (mortality of at least 20% and less than 40%)
M: posumbu knotweed, herbicidal effect (evaluation scale 0-5) [22]: 5 (mortality of 90% or above (nearly complete death))
E: giant foxtail, herbicidal effect (evaluation scale 0-5) [23]: 4 (mortality of at least 70% and less than 90%)
L: common lambsquater, herbicidal effect (evaluation scale 0-5) [24]: 3 (mortality of at least 40% and less than 70%)
K: redroot pigweed, herbicidal effect (evaluation scale 0-5) [25]: 3 (mortality of at least 40% and less than 70%)
J: common ragweed, herbicidal effect (evaluation scale 0-5) [26]: 4 (mortality of at least 70% and less than 90%)
A: barnyardgrass, herbicidal effect (evaluation scale 0-5) [27]: 5 (mortality of 90% or above (nearly complete death))
C: ducksalad, herbicidal effect (evaluation scale 0-5) [28]: 5 (mortality of 90% or above (nearly complete death))
B: bulrush, herbicidal effect (evaluation scale 0-5) [29]: 5 (mortality of 90% or above (nearly complete death))
A: barnyardgrass, herbicidal effect (evaluation scale 0-5) [30]: 5 (mortality of 90% or above (nearly complete death))
C: ducksalad, herbicidal effect (evaluation scale 0-5) [31]: 5 (mortality of 90% or above (nearly complete death))
B: bulrush, herbicidal effect (evaluation scale 0-5) [32]: 5 (mortality of 90% or above (nearly complete death))
a: transplanted rice, effect on crop (evaluation scale 0-5) [33]: 0 (mortality of less than 5% (almost ineffective))
